The results in this text go back to patent publication US11440905B2, “Biheterocyclic compound” (SUMITOMO PHARMA CO., LTD., priority 2016, dated 2022).

For this assay, the target named is T1, mouse semaphorin 3A (Sema3A) (Mus musculus, UniProt O08665).
T1 sequence (O08665 21-772): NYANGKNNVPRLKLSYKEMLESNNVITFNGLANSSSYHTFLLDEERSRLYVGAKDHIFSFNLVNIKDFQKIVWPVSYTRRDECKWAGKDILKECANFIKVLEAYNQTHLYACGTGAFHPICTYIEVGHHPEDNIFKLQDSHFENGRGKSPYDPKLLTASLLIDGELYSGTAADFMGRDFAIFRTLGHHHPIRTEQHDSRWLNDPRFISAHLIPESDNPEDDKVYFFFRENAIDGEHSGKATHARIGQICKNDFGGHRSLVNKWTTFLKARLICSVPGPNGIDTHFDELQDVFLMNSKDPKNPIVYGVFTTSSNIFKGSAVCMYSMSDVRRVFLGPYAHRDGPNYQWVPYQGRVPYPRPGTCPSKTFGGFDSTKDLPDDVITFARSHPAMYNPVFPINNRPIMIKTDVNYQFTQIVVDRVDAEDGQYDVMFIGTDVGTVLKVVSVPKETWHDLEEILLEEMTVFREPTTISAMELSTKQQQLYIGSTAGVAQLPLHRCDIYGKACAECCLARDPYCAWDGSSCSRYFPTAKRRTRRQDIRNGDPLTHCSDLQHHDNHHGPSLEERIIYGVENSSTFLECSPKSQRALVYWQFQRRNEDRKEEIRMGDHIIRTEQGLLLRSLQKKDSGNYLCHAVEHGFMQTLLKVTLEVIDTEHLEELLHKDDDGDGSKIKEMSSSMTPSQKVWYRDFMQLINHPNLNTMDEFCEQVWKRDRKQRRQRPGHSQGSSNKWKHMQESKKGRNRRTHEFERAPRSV
The assay can be described thus: Inhibitory activity for the collapse activity caused by Sema3A (growth cone collapse assay, Test 1). It is filed as cell-based. The following applies: chick embryo dorsal root ganglion, 3 units/mL mouse Sema3A, smaller value = more potent inhibition, read-out: residual ratio (%) of Sema3A activity (collapse assay); for remaining activity at 1 µM: 1 μM test compound; for remaining activity at 3 µM: 3 μM test compound. The method, then:
Inhibitory Activity for the Collapse Activity Caused by Sema3A
96 well-plate (SUMITOMO BAKELITE CO., LTD.) which was beforehand coated with polylysine was further coated with laminin (10 μL laminin, at room temperature, for 1 hour). To each well was added 100 μL of a medium (F12 medium containing 10% fetal bovine serum, 20 ng/mL NGF, 100 unit/mL penicillin, and 100 μg/mL streptomycin). Dorsal root ganglion harvested from 7-8 day-old chick embryo was inoculated thereto, and the culture medium was cultivated under the condition of 5% CO2 and 37° C. for 16-20 hours. And then, each test compound in various concentrations was added to the medium, each test medium was cultivated for 30 minutes, 3 units/mL mouse semaphorin 3A (Sema3A) was added to each medium, and then each test medium was cultivated for more 30 minutes. Then, glutaraldehyde was added to the medium, in which the final concentration of glutaraldehyde was 1%. The medium was left to stand at room temperature for 15 minutes to make the tissue fragment fixed, and the ratio of the retracted growth cone was measured under a microscope.

Each structure is given as a SMILES string. Counter-ions that a name gives are not always drawn.

For the compound `Cn1c(=O)c(-c2coc3cc(O)c(O)c(C(=O)OCc4cn(CC(=O)N[C@@H](CCC(=O)O)C(=O)O)nn4)c3c2=O)cc2cc(O)c(O)cc21` [Example 14, N-({4-[({[3-(6,7-Dihydroxy-1-methyl-2-oxo-1,2-dihydroquinolin-3-yl)-6,7-dihydroxy-4-oxo-4H-chromen-5-yl]carbonyl}oxy)methyl]-1H-1,2,3-triazol-1-yl}acetyl)-L-glutamic acid], the remaining activity at 1 µM came to 78.8% and the remaining activity at 3 µM was 6.1%.

Turning to `Cc1c(-c2coc3cc(O)c(O)c(C(=O)OCc4cn(CC(=O)N[C@@H](CCC(=O)O)C(=O)O)nn4)c3c2=O)c(=O)n(C)c2cc(O)c(O)cc12` [Example 15, N-({4-[({[3-(6,7-Dihydroxy-1,4-dimethyl-2-oxo-1,2-dihydroquinolin-3-yl)-6,7-dihydroxy-4-oxo-4H-chromen-5-yl]carbonyl}oxy)methyl]-1H-1,2,3-triazol-1-yl}acetyl)-L-glutamic acid], the remaining activity at 1 µM was found to be 5.4% and the remaining activity at 3 µM came out at 0%.

As to `Cc1nc2cc(O)c(O)cn2c(=O)c1-c1coc2cc(O)c(O)c(C(=O)O)c2c1=O` [Example 16, 3-(7,8-Dihydroxy-2-methyl-4-oxo-4H-pyrido[1,2-a]pyrimidin-3-yl)-6,7-dihydroxy-4-oxo-4H-chromene-5-carboxylic acid], the remaining activity at 1 µM amounted to 15.9% and the remaining activity at 3 µM turned out to be 2.2%.

With `Cc1nc2cc(O)c(O)cn2c(=O)c1-c1coc2cc(O)c(O)c(C(=O)OCc3cn(CC(=O)N[C@@H](CCC(=O)O)C(=O)O)nn3)c2c1=O` [Example 17, N-({4-[({[3-(7,8-Dihydroxy-2-methyl-4-oxo-4H-pyrido[1,2-a]pyrimidin-3-yl)-6,7-dihydroxy-4-oxo-4H-chromen-5-yl]carbonyl}oxy)methyl]-1H-1,2,3-triazol-1-yl}acetyl)-L-glutamic acid], the remaining activity at 1 µM came out at 90.1% and the remaining activity at 3 µM stood at 3.3%.

For the compound `Cc1nc2cc(O)c(O)cn2c(=O)c1-c1coc2cc(O)c(O)c(C(=O)OCC(=O)N[C@@H](CCC(=O)O)C(=O)O)c2c1=O` [Example 18, N-[({[3-(7,8-Dihydroxy-2-methyl-4-oxo-4H-pyrido[1,2-a]pyrimidin-3-yl)-6,7-dihydroxy-4-oxo-4H-chromen-5-yl]carbonyl}oxy)acetyl]-L-glutamic acid], the remaining activity at 1 µM stood at 21.8% and the remaining activity at 3 µM came out at 6.7%.

As to `Cn1cc(-c2coc3cc(O)c(O)c(C(=O)OCC(O)CO)c3c2=O)c(=O)c2cc(O)c(O)cc21` (centres unmarked) [Example 23, 2,3-Dihydroxypropyl 3-(6,7-dihydroxy-1-methyl-4-oxo-1,4-dihydroquinolin-3-yl)-6,7-dihydroxy-4-oxo-4H-chromene-5-carboxylate], the remaining activity at 1 µM is under 70% and the remaining activity at 3 µM is under 10%.

As to `Cn1cc(-c2coc3cc(O)c(O)c(C(=O)OC[C@H]4CC[C@H](N)CC4)c3c2=O)c(=O)c2cc(O)c(O)cc21` [Example 24, (trans-4-Aminocyclohexyl)methyl 3-(6,7-dihydroxy-1-methyl-4-oxo-1,4-dihydroquinolin-3-yl)-6,7-dihydroxy-4-oxo-4H-chromene-5-carboxylate hydrochloride], the remaining activity at 1 µM was under 70% and the remaining activity at 3 µM is under 10%.

Regarding `Cn1cc(-c2coc3cc(O)c(O)c(C(=O)OCC[C@H](N)C(=O)O)c3c2=O)c(=O)c2cc(O)c(O)cc21` [Example 27, O-{[3-(6,7-Dihydroxy-1-methyl-4-oxo-1,4-dihydroquinolin-3-yl)-6,7-dihydroxy-4-oxo-4H-chromen-5-yl]carbonyl}-L-homoserine hydrochloride], the remaining activity at 1 µM was under 10% and the remaining activity at 3 µM was under 10%.

With `Cn1cc(-c2coc3cc(O)c(O)c(C(=O)OCC(N)=O)c3c2=O)c(=O)c2cc(O)c(O)cc21` [Example 30, 2-Amino-2-oxoethyl 3-(6,7-dihydroxy-1-methyl-4-oxo-1,4-dihydroquinolin-3-yl)-6,7-dihydroxy-4-oxo-4H-chromene-5-carboxylate], the remaining activity at 3 µM is under 40%.
